From PMC8465942, “Cyano- and Ketone-Containing Selenoesters as Multi-Target Compounds against Resistant Cancers” (Cancers, 2021) come the findings set out here.

Assay [1] concerns HeLa (cervical adenocarcinoma). Description: Cytotoxicity on HeLa cells. The settings on record: Homo sapiens. In kind it is cell-based. How it is done:
(§1) The activity of selenoesters was tested on several cancer cell lines, including HepG2 (hepatocellular carcinoma, CCL-23TM, ATCC); HeLa (cervical adenocarcinoma, CCL-2TM, ATCC); B16 (skin melanoma, CCL-6322TM, ATCC); and a non-cancerous cell line, HDF (human dermal fibroblasts, Sigma-Aldrich). HepG2, HeLa, B16, and HDF cell lines were cultivated in EMEM medium supplemented with 10% FBS, 2 mM L-glutamine, and 1% penicillin-streptomycin mixture. The HaCaT cell line was cultivated in DMEM medium supplemented with 10% FBS and 1% penicillin-streptomycin mixture. All of the cells were cultivated in a CO2 incubator (5% CO2, 37 °C). Twice per week, the cell lines were passaged according to a standardized protocol with a trypsin-EDTA solution.
(§2) The selectivity indexes (SI) were calculated as the ratio of the IC50 value in the non-tumour cells and the IC50 in the cancer cell lines. The compound’s activity towards cancer cells is considered as strongly selective if the selectivity index (SI) value is higher than 6, moderately selective if 3 < SI < 6, slightly selective if 1 < SI < 3, and non-selective if SI is lower than 1 [16].

In a further assay the test system is HaCaT cell line. Description: Toxicity on HaCaT cells (IC10 used as dose). The settings on record: Homo sapiens. In kind it is cell-based. As to the method:
as §1, with “solution. […]” for “solution.”
Wound healing activity of selenoesters was evaluated as the ability of the cells to migrate and close the gap created on the monolayer of human keratinocytes (HaCaT cell line). The tested substances were applied in the highest possible non-toxic concentration (IC10, concentration inhibiting 10% of the population). In general, ketone-selenoesters were more toxic (except K4 and K1) than cyano-selenoesters (except N4); therefore, they were applied at lower doses (0.17–0.30 µM) when compared to cyanoselenoesters (0.36–0.64 µM). Compounds K1, K4, and N4 were applied at a concentration of 0.30, 0.46, and 0.20 µM, respectively. As could be seen in Table 8, all ketone-selenoesters stimulated wound healing more effectively in comparison to both untreated control (p < 0.0000005) and allantoin (p < 0.00005). […] Only samples N1, N2, N4, and N7 closed effectively the damaged wound in 24 h, with the gap closure around 70%.

In a further assay the test system is B16 (skin melanoma). Nature of the assay: Cytotoxicity on B16 cells. It counts as cell-based, murine. The settings on record: Mus musculus. How it is done:
as §1, §2

Assay [2] has as its system resistant Colo 320 colon adenocarcinoma cells expressing the ABCB1 transporter. Description: Checkerboard combination assay with doxorubicin. It counts as cell-based, human. As to the method: A checkerboard microplate method was applied to study the effect of drug interactions between the selenocompounds and the chemotherapeutic drug doxorubicin on resistant Colo 320 colon adenocarcinoma cells expressing the ABCB1 transporter. Results were expressed in terms of the combination index (CI) values at 50% growth inhibition (ED50), which were determined by using CompuSyn software to plot 4 or 5 data points for each ratio.
To perform the experiment, the dilutions of doxorubicin were made in a horizontal direction in 100 µL, and the dilutions of the Se-compounds were made vertically in the microtiter plate in a volume of 50 µL. The cells were re-suspended in the culture medium and distributed into each well in 50 µL portions containing 6000 cells. The plates were incubated for 72 h at 37 °C in a CO2 incubator. The cell growth rate was determined after MTT staining. At the end of the incubation period, 20 μL of MTT solution was added to each well. After incubation at 37 °C for 4 h, 100 μL of SDS was added to each well and the plates were further incubated at 37 °C overnight. The optical density (OD) was measured at 540/630 nm with the Multiscan EX ELISA reader.

The test system of assay [3] is HepG2 (hepatocellular carcinoma). Description: Cytotoxicity on HepG2 cells. In kind it is cell-based. The settings on record: Homo sapiens. How it is done:
as §1, §2

Assay [4] relates to HeLa (cervical adenocarcinoma). Description: Cytotoxicity on HeLa cells. It counts as cell-based, human. Conditions: ratio IC50 non-tumour cells / IC50 cancer cells.
[5] abbreviates: concentration inhibiting 10% of the population, highest non-toxic concentration, read-out: Dose IC10.
[6] abbreviates: in at least one of the ratios tested.
Setting [7] is: ratio 1.2:1, starting conc. 10 µM.
Setting [8] is: ratio 2.4:1, starting conc. 10 µM.
[9] abbreviates: ratio 4.8:1, starting conc. 10 µM.
Where [10] appears, read: ratio 9.6:1, starting conc. 10 µM.
Setting [11] is: ratio 19.2:1, starting conc. 10 µM.
Where [12] appears, read: ratio 38.4:1, starting conc. 10 µM.
Setting [13] is: ratio 0.6:1, starting conc. 5 µM.
The mark [14] stands for this setting: ratio 1.2:1, starting conc. 5 µM.
Where [15] appears, read: ratio 2.4:1, starting conc. 5 µM.
The mark [16] stands for this setting: ratio 4.8:1, starting conc. 5 µM.
Setting [17] is: ratio 9.6:1, starting conc. 5 µM.
Where [18] appears, read: ratio 0.7:1, starting conc. 6 µM.
Where [19] appears, read: ratio 1.4:1, starting conc. 6 µM.
Setting [20] is: ratio 2.8:1, starting conc. 6 µM.
Setting [21] is: ratio 5.6:1, starting conc. 6 µM.
The mark [22] stands for this setting: ratio 11.2:1, starting conc. 6 µM.
The mark [23] stands for this setting: ratio 22.4:1, starting conc. 6 µM.

“Also recorded” adds a separate entry of the source. Where two headings read alike, the source gives them in different places. Marks after values point to notes of the source that are not given here.

As to `N#CC[Se]C(=O)c1ccccc1C(F)(F)F` [N4, Se-(Cyanomethyl) 2-(Trifluoromethyl)benzoselenoate], the IC50 in assay [1] was 2.5 µM; in the assay on B16 (skin melanoma), 1.4 µM; in assay [3], 5.2 µM. The IC10 in the assay with HaCaT cell line (setting [5]) came out at 0.2 µM. Further, the Interaction with doxorubicin entry in assay [2] (setting [6]) is given as “synergistic manner; also recorded: synergistic effect”. Moreover, the “Type of Interaction” value in assay [2] (setting [7]) is “Antagonism”; in assay [2] (setting [8]) it was “Strong antagonism”; in assay [2] (setting [9]), “Moderate synergism”; in assay [2] (setting [10]), “Additive effect”; in assay [2] (setting [11]), “Slight antagonism”; in assay [2] (setting [12]), “Moderate antagonism”. In assay [4], the “SI MRC-5/HeLa” value is >6 *.
Turning to `CC(=O)C[Se]C(=O)c1ccccc1C(F)(F)F` [K4, Se-(2-Oxopropyl) 2-(Trifluoromethyl)benzoselenoate], the figures for the IC50 (in assay [1]; in the assay with B16 (skin melanoma); in assay [3]) were 1.9 µM, 2 µM and 4.3 µM, respectively. The IC10 in the assay on HaCaT cell line (read-out: Dose IC10 (µM)) stood at 0.46 µM. Moreover, in assay [2] (setting [6]), the Interaction with doxorubicin entry is “synergistic manner; also recorded: interact synergistically”. Besides, the “Type of Interaction” value is recorded as “Synergism” in assay [2] (setting [13]); “Additive effect” in assay [2] (setting [14]); “Additive effect” in assay [2] (setting [15]); “Moderate synergism” in assay [2] (setting [16]); “Slight synergism” in assay [2] (setting [17]); “Additive effect” in assay [2] (ratio 19.2:1, starting conc. 5 µM). In addition, in assay [4], the “SI MRC-5/HeLa” value is 1.5.
For the compound `CC(=O)C[Se]C(=O)c1cc(F)c(F)cc1F` [K8, Se-(2-Oxopropyl) 2,4,5-Trifluorobenzoselenoate], the IC50 in assay [1] was 2 µM; with B16 (skin melanoma), 1.4 µM; in assay [3], 4 µM. Also, the IC10 with HaCaT cell line (setting [5]) was determined as 0.17 µM. Moreover, the Interaction with doxorubicin entry in assay [2] (setting [6]) was “synergistic manner; also recorded: interact synergistically”. In addition, the “Type of Interaction” value in assay [2] (setting [18]) was “Strong synergism”; in assay [2] (setting [19]), “Antagonism”; in assay [2] (setting [20]), “Antagonism”; in assay [2] (setting [21]), “Antagonism”; in assay [2] (setting [22]), “Antagonism”. In assay [4], the “SI MRC-5/HeLa” value is 1.3.
With `CC(=O)C[Se]C(=O)c1ccc(C(C)(C)C)cc1` [K7, Se-(2-Oxopropyl) 4-(Tert-butyl)benzoselenoate], the concentration for half-maximal inhibition (IC50) came out at 2.7 µM in assay [1], 1.4 µM with B16 (skin melanoma) and 3.7 µM in assay [3]. Further, in the assay on HaCaT cell line (read-out: Dose IC10 (µM)), the IC10 is 0.24 µM. The “Type of Interaction” value in assay [2] (setting [18]) is reported as “Moderate antagonism”; in assay [2] (setting [19]), “Antagonism”; in assay [2] (setting [20]), “Moderate antagonism”; in assay [2] (setting [21]) it was “Moderate antagonism”; in assay [2] (setting [22]) it was “Antagonism”; in assay [2] (setting [23]), “Antagonism”. The “SI MRC-5/HeLa” value in assay [4] worked out at 1.4.
Take `CC(=O)C[Se]C(=O)c1cccs1` [K1, Se-(2-Oxopropyl) Thiophene-2-carboselenoate]: the IC50 is 2.5 µM in assay [1], 1.4 µM in the assay on B16 (skin melanoma) and 2.3 µM in assay [3]. The IC10 in the assay with HaCaT cell line (setting [5]) amounted to 0.3 µM. Further, the Interaction with doxorubicin result in assay [2] (setting [6]) is given as “synergistic manner; also recorded: interact synergistically”. In addition, the “Type of Interaction” value is reported as “Antagonism” in assay [2] (setting [13]); “Additive effect” in assay [2] (setting [14]); “Additive effect” in assay [2] (setting [15]); “Slight synergism” in assay [2] (setting [16]); “Slight antagonism” in assay [2] (setting [17]). Also, the “SI MRC-5/HeLa” value in assay [4] was found to be 1.5.
For the compound `N#CC[Se]C(=O)c1cc(C(F)(F)F)cc(C(F)(F)F)c1` [N7, Se-(Cyanomethyl) 3,5-Bis(trifluoromethyl)benzoselenoate], the concentration for half-maximal inhibition (IC50) in assay [1] is 2.1 µM; in the assay on B16 (skin melanoma), 1.6 µM; in assay [3], 11.8 µM. The IC10 in the assay on HaCaT cell line (setting [5]) was 0.61 µM. Further, in assay [2] (setting [6]), the Interaction with doxorubicin entry was “synergistic manner; also recorded: synergistic effect”. Also, the “Type of Interaction” value was “Antagonism” in assay [2] (ratio 0.9:1, starting conc. 8 µM); “Strong antagonism” in assay [2] (ratio 1.8:1, starting conc. 8 µM); “Slight synergism” in assay [2] (ratio 3.6:1, starting conc. 8 µM); “Antagonism” in assay [2] (ratio 7.2:1, starting conc. 8 µM); “Antagonism” in assay [2] (ratio 14.4:1, starting conc. 8 µM); “Additive effect” in assay [2] (ratio 28.8:1, starting conc. 8 µM). The “SI MRC-5/HeLa” value in assay [4] is >6 *.
Take `CC(=O)C[Se]C(=O)c1cccc(C(F)(F)F)c1` [K5, Se-(2-Oxopropyl) 3-(Trifluoromethyl)benzoselenoate]: the IC50 in assay [1] was found to be 2.5 µM; in the assay on B16 (skin melanoma), 1.1 µM; in assay [3] it was 2.4 µM. For the same compound, in the assay with HaCaT cell line (setting [5]), the 10% effect concentration (IC10) is 0.25 µM. Also, the figures for the Interaction with doxorubicin result in assay [2] (in all ratios tested) and in assay [2] (setting [6]) were “synergistic interaction” and “synergistic manner; also recorded: interact synergistically”, respectively. In addition, the “Type of Interaction” value in assay [2] (setting [18]) was “Synergism”; in assay [2] (setting [19]), “Moderate synergism”; in assay [2] (setting [20]), “Synergism”; in assay [2] (setting [21]), “Synergism”; in assay [2] (setting [22]), “Synergism”; in assay [2] (setting [23]), “Synergism”. In assay [4], the “SI MRC-5/HeLa” value was 1.2.
`N#CC[Se]C(=O)c1ccc(Br)cc1` [N3, Se-(Cyanomethyl) 4-Bromobenzoselenoate]: the 50% inhibitory concentration (IC50) in assay [1] stood at 2.4 µM; with B16 (skin melanoma), 2.8 µM; in assay [3], 9.6 µM. In the assay on HaCaT cell line (setting [5]), the IC10 is 0.64 µM. Moreover, the Interaction with doxorubicin entry in assay [2] (setting [6]) is listed as “synergistic manner; also recorded: synergistic effect”. Further, the “Type of Interaction” value in assay [2] (setting [7]) is given as “Antagonism”; in assay [2] (setting [8]) it was “Strong antagonism”; in assay [2] (setting [9]), “Moderate synergism”; in assay [2] (setting [10]), “Additive effect”; in assay [2] (setting [11]), “Slight antagonism”; in assay [2] (setting [12]), “Moderate antagonism”. In addition, the “SI MRC-5/HeLa” value in assay [4] was >6 *.

In general, IC50 refers to the concentration at which inhibition is half-maximal. A high value points to lower potency. For orientation: IC10 means the concentration at which the effect reaches the 10% level.
